Patent publication US10980231B2, “Insect repellent” (Kao Corporation, priority 2015, dated 2021)

Test system: Asian tiger mosquito
Assay: Evaluation of inhibition of seeking behavior of mosquito for human arm (landing count)
Format: in vivo
Set-up: tested at 0.1 vol %
Conditions: sample 0.1 vol % in ethanol on breathable sheet on arm; landings in 5 minutes vs ethanol only; female mosquitoes
Description: Mosquitoes were prepared for evaluation in the same manner as in Example 1. Approximately 150 to 200 female Asian tiger mosquitoes were transferred in a plastic cage (30×30×30 cm). […] The other three sides were covered with a net, preventing a smell from remaining in the box. A breathable sheet for disposable diapers (air permeance (JIS P8117): 2 sec/300 mL·32 sheets or higher, water vapor transmission rate (JIS Z0208): 1 g/100 cm^2·1 hr or higher) was cut into a size of 6 cm×6 cm, and the resultant was fixed with a tape to the inner side of a Qualatex glove (AS ONE 8-4053-02) cut in 5 cm×5 cm, and […] of an evaluation sample, the concentration of which had been adjusted to 0.1 vol % with ethanol, was uniformly applied onto the breathable sheet. After the application, the resultant was left to stand for approximately 5 minutes, and the attraction test was conducted. The arm was covered with the Qualatex glove provided with the breathable sheet, and inserted in the plastic cage. After the insertion, the number of mosquitoes which landed on the breathable sheet in 5 minutes was counted. In the case that a mosquito landed a plurality of times, all of the landings were counted. In view of the influence of a sample on the mosquitoes, the test was conducted just four times in one cage, and the cage was then replaced with another cage and other mosquitoes were used for the subsequent tests. The inhibitory rate relative to the number of landings with application of ethanol solvent only was calculated to determine the inhibitory effect. Inhibitory rate (%)=100×(1−[number of landings with application of sample]/[number of landings with application of ethanol]) (Equation 2)

Structure (SMILES) | Inhibitory rate (%)
CC1=CC(C)C(CO)C(C)C1 (centres unmarked) [2,4,6-Trimethyl-3-cyclohexene-1-methanol, 2,4,6-trimethyl-3-cyclohexene-1-methanol] | 89%
CCC/C=C/COC(C)=O [trans-2-Hexenyl acetate, trans-2-hexenyl acetate] | 54%
CCCCCCCCCCO [1-Decanol, 1-decanol] | 97.5%
CCCCC(CC)C(=O)OCC (centres unmarked) [Ethyl 2-ethylhexanoate, ethyl 2-ethylhexanoate] | 66%
CCOC(=O)Cc1ccccc1 [Ethyl phenylacetate, ethyl phenylacetate] | 38.5%
CCCc1ccc(O)c(OC)c1 [2-Methoxy-4-propylphenol, 2-methoxy-4-propylphenol] | 100%
C=CC(O)CCCCC (centres unmarked) [1-Octen-3-ol, 1-octen-3-ol] | 70.5%
CCOC(=O)C(C)C1CCCCC1 (centres unmarked) [Ethyl 2-cyclohexylpropionate, ethyl 2-cyclohexylpropionate] | 58%
C=CCCCCCCCCO [9-Decen-1-ol, 9-decen-1-ol] | 93.5%

Test system: not given
Assay: not given
Conditions: cited from earlier work

Structure (SMILES) | skin permeability
CCN(CC)C(=O)c1cccc(C)c1 [DEET, N,N-diethyl-3-methylbenzamide] | high skin permeability

Test system: insects
Assay: not given
Conditions: repellent use; cited from earlier work

Structure (SMILES) | duration
CCN(CC)C(=O)c1cccc(C)c1 [DEET, N,N-diethyl-3-methylbenzamide] | 2 to 3 h
